Key:
c-Src (h) = molecular target: T1, c-Src (h) (Homo sapiens, UniProt P12931); experiment: c-Src kinase activity assay, cell free; assay type: biochemical
T1 construct: purchased Eurofins Pharma Discovery Services UK Ltd (contract assay service)
Experimental: (§1) The capacity of test peptides to inhibit the activity of the kinases PKG1α, PKG1β, and Src family kinases in a cell free assay was assessed. The test peptides were amidated at their C-terminal end (indicated by “—NH2”) unless otherwise noted. Kinase activity assays were conducted by Eurofins Pharma Discovery Services UK Ltd (Dundee Technology Park, Dundee, United Kingdom) and Reaction Biology Corp. (Malvern, Pa., USA).
(§2) All test peptides are prepared to 50× final assay concentration in 100% DMSO. This working stock of the test compound is added to assay wells as the first component in the reaction, followed by the remaining components of the respective assay protocols described below. There is no pre-incubation step between the test peptide and the kinase prior to initiation of the reaction. The kinases are diluted in buffer (20 mM MOPS, 1 mM EDTA, 0.01% Brij-35, 5% Glycerol, 0.1% β-mercaptoethanol, 1 mg/mL BSA) prior to addition to the reaction mix.
(§3) Positive control wells contain all components of the reaction, except the test peptide of interest. However, DMSO (at a final concentration of 2%) is included in positive control wells to control for solvent effects. Negative control wells contain all components of the reaction, with a reference inhibitor (staurosporine) replacing the test peptide. This abolishes kinase activity and establishes a base-line (0% kinase activity). Kinase assay protocols (Eurofins Pharma Discovery Services UK Ltd, Dundee Technology Park, Dundee, United Kingdom) are described below. Of the Src family kinases, only the assay protocol for c-Src is shown.
(§4) c-Src (h) is incubated with 8 mM MOPS pH 7.0, 0.2 mM EDTA, 250 μM KVEKIGEGTYGVVYK (Cdc2 peptide), 10 mM MgAcetate and [γ-^33P]-ATP (specific activity approx. 500 cpm/pmol, concentration as required). The reaction is initiated by the addition of the MgATP mix. After incubation for 40 minutes at room temperature, the reaction is stopped by the addition of 3% phosphoric acid solution. A 10 μL aliquot of the reaction is then spotted onto a P30 filtermat and washed three times for 5 minutes in 75 mM phosphoric acid and once in methanol prior to drying and scintillation counting.

PKG1β (h) = molecular target: T2, PKG1β (h) (Homo sapiens, UniProt Q13976); experiment: PKG1β kinase activity assay, cell free; assay type: biochemical
T2 construct: purchased Eurofins Pharma Discovery Services UK Ltd (contract assay service)
T2 sequence (Q13976 1-686 isoform Q13976-2): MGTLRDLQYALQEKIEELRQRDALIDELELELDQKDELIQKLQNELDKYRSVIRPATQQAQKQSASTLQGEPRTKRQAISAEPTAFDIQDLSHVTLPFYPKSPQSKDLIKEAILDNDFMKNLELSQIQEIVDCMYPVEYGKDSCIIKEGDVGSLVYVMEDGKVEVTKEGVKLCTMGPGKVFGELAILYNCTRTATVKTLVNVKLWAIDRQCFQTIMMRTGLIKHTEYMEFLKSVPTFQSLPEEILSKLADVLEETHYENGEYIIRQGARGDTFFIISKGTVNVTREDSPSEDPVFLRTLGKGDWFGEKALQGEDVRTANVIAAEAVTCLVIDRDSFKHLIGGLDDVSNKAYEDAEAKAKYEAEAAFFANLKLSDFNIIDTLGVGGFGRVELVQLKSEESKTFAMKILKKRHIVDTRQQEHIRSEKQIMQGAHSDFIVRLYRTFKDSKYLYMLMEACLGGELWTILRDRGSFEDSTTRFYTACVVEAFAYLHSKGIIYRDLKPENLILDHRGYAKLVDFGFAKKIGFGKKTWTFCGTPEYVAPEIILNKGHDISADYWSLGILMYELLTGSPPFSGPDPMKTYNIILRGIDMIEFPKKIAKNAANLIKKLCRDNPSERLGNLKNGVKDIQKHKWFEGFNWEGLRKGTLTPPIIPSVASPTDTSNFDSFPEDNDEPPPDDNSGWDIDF
Experimental: as §1, §2, §3
as §4, with “PKG1b(h) is” for “c-Src (h) is”, “EDTA, 10” for “EDTA, 250”, “μM cGMP, 200 μM RRRLSFAEPG,” for “μM KVEKIGEGTYGVVYK (Cdc2 peptide),”, “mM magnesium acetate” for “mM MgAcetate”, “5 mins” for “5 minutes”

T1 sequence (P12931 whole entry): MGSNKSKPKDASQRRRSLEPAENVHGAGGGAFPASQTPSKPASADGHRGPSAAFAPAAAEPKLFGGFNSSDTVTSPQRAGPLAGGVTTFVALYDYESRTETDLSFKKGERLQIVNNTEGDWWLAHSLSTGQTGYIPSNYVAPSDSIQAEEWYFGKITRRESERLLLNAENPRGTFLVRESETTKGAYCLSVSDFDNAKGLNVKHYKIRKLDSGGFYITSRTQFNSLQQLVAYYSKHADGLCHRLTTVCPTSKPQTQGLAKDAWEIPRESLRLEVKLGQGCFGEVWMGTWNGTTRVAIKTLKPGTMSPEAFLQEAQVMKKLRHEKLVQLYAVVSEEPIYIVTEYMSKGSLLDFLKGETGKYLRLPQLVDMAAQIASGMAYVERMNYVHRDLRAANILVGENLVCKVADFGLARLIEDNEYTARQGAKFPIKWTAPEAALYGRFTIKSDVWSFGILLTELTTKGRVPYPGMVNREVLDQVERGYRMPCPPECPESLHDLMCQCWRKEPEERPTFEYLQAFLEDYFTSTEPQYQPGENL

N=C(N)NCCC[C@H](NC(=O)[C@H](CCCNC(=N)N)NC(=O)[C@H](CCCNC(=N)N)NC(=O)[C@H](CCCNC(=N)N)NC(=O)[C@H](CCCNC(=N)N)NC(=O)[C@H](CCCNC(=N)N)NC(=O)[C@H](CCCNC(=N)N)NC(=O)[C@H](CCCNC(=N)N)NC(=O)[C@H](CCCNC(=N)N)NC(=O)[C@H](CCCNC(=N)N)NC(=O)[C@H](CCCNC(=N)N)NC(=O)[C@H](CCCNC(=N)N)NC(=O)[C@H](CCCNC(=N)N)NC(=O)[C@@H](N)CCCNC(=N)N)C(N)=O [IK01400, RRRRRRRRRRRRRR-NH2]
IC50 (c-Src (h)): 5.5 nM | IC50 (PKG1β (h)): 5.3 nM | PKG1β IC50 (PKG1β (h); cell free, 10 μM cGMP, 40 minutes at room temperature): single digit nanomolar range

Reference: patent US20210000912A1, “Compositions And Methods For Prophylaxis Or Treatment Of Pain” (Interk Peptide Therapeutics Limited, priority 2017, published 2021)
